# Assay results taken from patent US20110039879A1, “METHODS FOR INCREASING WHITE BLOOD CELLS” (FibroGen ,Inc., priority 2007, published 2011).
# Marks after values point to notes of the source that are not given here.
# Tests used:
# [1] = test system: total white blood cell (WBC); assay: Chemotherapy (cisplatin)-induced leukopenia, total WBC by CBC; type: in vivo, Sprague Dawley rats; conditions: rats; for total white blood cell levels in the cisplatin-treated animals (in words): 5 mg/kg cisplatin, Compound S 60 mg/kg or Compound B 40 mg/kg oral gavage day 0, 2, 4, day 4; for Total WBC / Total WBC % Change from Control: cisplatin 5 mg/kg i.v. day 0, blood day 4; for Total WBC % Change from Control: vs healthy control
# Protocol: (§1) To examine the effect of compounds and methods of the present invention on increasing white blood cells, the following studies were performed. In one series of experiments, male Swiss-Webster mice were administered various compounds of the present invention via oral gavage using a ball-tipped gavage needle. Animals treated by oral gavage received a 10 ml/kg volume of either 0.5% carboxymethyl cellulose (CMC) with 0.1% Polysorbate 80 (vehicle control) or various doses (10-100 mg/kg) of a compound of the present invention in 0.5% CMC with 0.1% Polysorbate 80. Animals were dosed once daily for 3 or 4 days. […] The following study was performed to examine the effect of compounds and methods of the present invention on treatment of chemotherapy-induced leukopenia. Thirty-eight Sprague Dawley male rats (280-300 g) were obtained from Charles River Laboratories. Six rats served as healthy controls. On day 0, the remaining thirty-two rats were treated by intravenous injection (i.v.) with a single dose of cisplatin (CP) (Bedford Laboratories, Bedford Ohio) at 5 mg/kg and by oral gavage with one of the following: Compound S at 60 mg/kg; Compound B at 40 mg/kg; or vehicle 2 ml/kg. Compound was administered on day 0, day 2, and day 4 with the first dose given two hours before the CP injection. Blood samples (0.2 ml) were collected on day 4 as follows. Animals were anesthetized with isoflurane and 0.2 ml of blood was collected from the tail vein into a MICROTAINER EDTA-2K tube (Becton-Dickinson). Blood samples were processed to measure total white blood cell, neutrophil, and lymphocyte levels by CBC analysis as described above in Example 3.
# neutrophils [2] = assay: Chemotherapy (cisplatin)-induced leukopenia, neutrophils by CBC; type: in vivo, Sprague Dawley rats; conditions: rats, cisplatin 5 mg/kg i.v. day 0, blood day 4; for Neutrophils % Change from Control: vs healthy control
# Protocol: as §1
# lymphocytes [3] = assay: Chemotherapy (cisplatin)-induced leukopenia, lymphocytes by CBC; type: in vivo, Sprague Dawley rats; conditions: rats, cisplatin 5 mg/kg i.v. day 0, blood day 4; for Lymphocytes % Change from Control: vs healthy control
# Protocol: as §1
# [4] = test system: neutrophils in bone marrow; assay: Neutrophils in bone marrow by FACS analysis; type: in vivo, Swiss-Webster mice; conditions: mice, oral gavage, tibia bone marrow 6 h after final dosing
# Protocol: (§2) Six hours after the final dosing, 200 μl blood samples were collected for detection of hematopoietic progenitor cells (HPCs) and neutrophils by FACS analysis using methods previously described. (See, e.g., Wang et al. (1997) J Leukoc Biol 62 503-9 and Legasse et al. (1996) J Immunol Methods 197:139-50.) Briefly, leukocytes and progenitor cells were isolated from whole blood samples following erythrocyte depletion using red blood cell lysis buffer (eBioscience) according to the manufacturer's instructions. The remaining cells were incubated for one hour with monoclonal antibodies directed against mouse Sca-1 and mouse c-Kit (cell surface markers for HPCs, BD Pharmingen), or mouse Mac-1 and mouse Gr-1 (cell surface markers for murine neutrophils, BD Pharmingen). Following incubation with the monoclonal antibodies, the cells were washed three times with sort buffer (PBS, 1% fetal bovine serum) and resuspended in sort buffer containing 50 μg/ml of propidium iodide. Samples were then analyzed for the presence and quantitation of HPCs and neutrophils by flow cytometry (FACS Calibur, Becton Dickinson). The cytometer was set to acquire 10 000 events. Two or three blood samples obtained from each animal were analyzed and the average recorded. Hematopoietic progenitor cells were determined as double positive Sca-1+/c-Kit+ cells and neutrophils were determined as double positive Mac-1+/Gr-1+ cells.
# (§3) To examine the effect of compounds and methods of the present invention on hematopoietic progenitor cell (HPC) and neutrophil levels in bone marrow, the following studies were performed. Male Swiss-Webster mice were administered various compounds of the present invention via oral gavage using a ball-tipped gavage needle. Animals treated by oral gavage received a 10 ml/kg volume of either 0.5% carboxymethyl cellulose (CMC) with 0.1% Polysorbate 80 (vehicle control) or various doses (10-100 mg/kg) of a compound of the present invention in 0.5% CMC with 0.1% Polysorbate 80. Animals were dosed once daily for 3 or 4 days. Six hours after the final dosing, bone marrow samples were taken from one tibia of each animal and suspended in buffer (PBS with 1% fetal bovine serum). Bone marrow suspensions were then filtered through nylon filters to remove stromal cells. Following filtration, the remaining cells were counted manually using a hemocytometer. Detection and quantitation of HPCs and neutrophils were performed by FACS analysis as described above in Example 1.
# [5] = test system: hematopoietic progenitor cells (HPCs) in bone marrow; assay: Hematopoietic progenitor cells in bone marrow by FACS analysis; type: in vivo, Swiss-Webster mice; conditions: mice, oral gavage, tibia bone marrow 6 h after final dosing
# Protocol: as §2, §3
# neutrophils [6] = assay: Neutrophils (Mac-1+/Gr-1+) in blood by FACS analysis; type: in vivo, Swiss-Webster mice; conditions: mice, oral gavage, blood 6 h after final dosing
# Protocol: (§4) To examine the effect of compounds and methods of the present invention on hematopoietic progenitor cell (HPC) and neutrophil levels, the following studies were performed. Male Swiss-Webster mice were administered various compounds of the present invention via oral gavage using a ball-tipped gavage needle. Animals treated by oral gavage received a 10 ml/kg volume of either 0.5% carboxymethyl cellulose (CMC) with 0.1% Polysorbate 80 (vehicle control) or various doses (10-100 mg/kg) of a compound of the present invention in 0.5% CMC with 0.1% Polysorbate 80. Animals were dosed once daily for 3 or 4 days.
# as §2
# neutrophils [7] = assay: Neutrophils by complete blood count, once daily dosing 3 or 4 days; type: in vivo, Swiss-Webster mice; conditions: mice, oral gavage, blood 6 h after final dosing, CBC
# Protocol: as §4, with “increasing white blood cells,” for “hematopoietic progenitor cell (HPC) and neutrophil levels,”, “In one series of experiments, male” for “Male”, “days. Six hours after the final dosing, 200 μl blood samples were collected and total white blood cell, neutrophil, and lymphocyte levels were measured by complete blood count (CBC) using a CellDyn cell analyzer (Abbott Laboratories).” for “days.”
# [8] = test system: hematopoietic progenitor cells (HPCs); assay: Hematopoietic progenitor cells (Sca-1+/c-Kit+) in blood by FACS analysis; type: in vivo, Swiss-Webster mice; conditions: mice, oral gavage, blood 6 h after final dosing
# Protocol: as §4, §2
# [9] = test system: total white blood cell (WBC); assay: Total white blood cells by complete blood count, once daily dosing 3 or 4 days; type: in vivo, Swiss-Webster mice; conditions: mice, oral gavage, blood 6 h after final dosing
# Protocol: as §4, with “increasing white blood cells,” for “hematopoietic progenitor cell (HPC) and neutrophil levels,”, “In one series of experiments, male” for “Male”, “days. Six hours after the final dosing, 200 μl blood samples were collected and total white blood cell, neutrophil, and lymphocyte levels were measured by complete blood count (CBC) using a CellDyn cell analyzer (Abbott Laboratories).” for “days.”
# lymphocytes [10] = assay: Lymphocytes by complete blood count, once daily dosing 3 or 4 days; type: in vivo, Swiss-Webster mice; conditions: mice, oral gavage, blood 6 h after final dosing, CBC
# Protocol: as §4, with “increasing white blood cells,” for “hematopoietic progenitor cell (HPC) and neutrophil levels,”, “In one series of experiments, male” for “Male”, “days. Six hours after the final dosing, 200 μl blood samples were collected and total white blood cell, neutrophil, and lymphocyte levels were measured by complete blood count (CBC) using a CellDyn cell analyzer (Abbott Laboratories).” for “days.”
# [11] = compound 60 mg/kg oral gavage day 0, day 2, day 4
# [12] = compound 40 mg/kg oral gavage day 0, day 2, day 4
# [13] = 100 mg/kg once daily for 4 days
smiles,measurement,setting,value
"O=C(O)CNC(=O)c1nc(Cl)c2ccccc2c1O [Compound S, [(1-Chloro-4-hydroxy-isoquinoline-3-carbonyl)-amino]-acetic acid]",total white blood cell levels in the cisplatin-treated animals (in words),[1],increased total white blood cell levels
same,Total WBC,[1]; [11],20.2 10^3 cells/μl
same,Total WBC % Change from Control,[1]; [11],19%
same,Neutrophils,neutrophils [2]; [11],2.2 10^3 cells/μl
same,Neutrophils % Change from Control,neutrophils [2]; [11],7%
same,Lymphocytes,lymphocytes [3]; [11],16.2 10^3 cells/μl
same,Lymphocytes % Change from Control,lymphocytes [3]; [11],21%
"Cc1nc(C(=O)NCC(=O)O)c(O)c2ccc(Oc3ccccc3)cc12 [Compound B, [(4-Hydroxy-1-methyl-7-phenoxy-isoquinoline-3-carbonyl)-amino]-acetic acid]",total white blood cell levels in the cisplatin-treated animals (in words),[1],increased total white blood cell levels
same,Total WBC,[1]; [12],16.8 10^3 cells/μl
same,Total WBC % Change from Control,"[1]; compound 40 mg/kg oral gavage day 0, day 2, day 4, reduction not statistically significant",−1* %
same,Percent Bone Marrow Neutrophils,[4]; 60 mg/kg once daily for 3 days,34.7 % gated cells
same,Percent Bone Marrow Neutrophils Fold Increase Over Control,[4]; 60 mg/kg once daily for 3 days,1.1 fold
same,Percent Bone Marrow Neutrophils,[4]; [13],33.6 % gated cells
same,Percent Bone Marrow Neutrophils Fold Increase Over Control,[4]; [13],1.3 fold
same,Percent Bone Marrow HPCs,[5]; 60 mg/kg once daily for 3 days,6.3 % gated cells
same,Percent Bone Marrow HPCs Fold Increase Over Control,[5]; 60 mg/kg once daily for 3 days,1.7 fold
same,Percent Bone Marrow HPCs,[5]; [13],7.0 % gated cells
same,Percent Bone Marrow HPCs Fold Increase Over Control,[5]; [13],1.6 fold
same,Blood Neutrophils,neutrophils [6]; 60 mg/kg once daily for 3 days,126 cells/μl
same,Blood Neutrophils Fold Increase Over Control,neutrophils [6]; 60 mg/kg once daily for 3 days,1.3 fold
same,Percent Blood Neutrophils,neutrophils [6]; 60 mg/kg once daily for 3 days,1.2 % gated cells
same,Percent Blood Neutrophils Fold Increase Over Control,neutrophils [6]; 60 mg/kg once daily for 3 days,0.9 fold
same,Blood Neutrophils,neutrophils [6]; [13],936 cells/μl
same,Blood Neutrophils Fold Increase Over Control,neutrophils [6]; [13],5.3 fold
same,Percent Blood Neutrophils,neutrophils [6]; [13],9.1 % gated cells
same,Percent Blood Neutrophils Fold Increase Over Control,neutrophils [6]; [13],2.7 fold
same,Neutrophils,neutrophils [7]; 60 mg/kg once daily for 3 days,1.28 10^3 cells/μl
same,Neutrophils % Increase Over Control,neutrophils [7]; 60 mg/kg once daily for 3 days,110%
same,Neutrophils,neutrophils [7]; [13],0.96 10^3 cells/μl
same,Neutrophils % Increase Over Control,neutrophils [7]; [13],66%
same,Blood HPCs,[8]; 60 mg/kg once daily for 3 days,67 cells/μl
same,Blood HPCs Fold Increase Over Control,[8]; 60 mg/kg once daily for 3 days,1.5 fold
same,Percent Blood HPCs,[8]; 60 mg/kg once daily for 3 days,0.7 % gated cells
same,Percent Blood HPCs Fold Increase Over Control,[8]; 60 mg/kg once daily for 3 days,1.1 fold
same,Blood HPCs,[8]; [13],126 cells/μl
same,Blood HPCs Fold Increase Over Control,[8]; [13],7.4 fold
same,Percent Blood HPCs,[8]; [13],1.2 % gated cells
same,Percent Blood HPCs Fold Increase Over Control,[8]; [13],3.8 fold
same,Total WBC,[9]; 60 mg/kg once daily for 3 days,8.80 10^3 cells/μl
same,Total WBC % Increase Over Control,[9]; 60 mg/kg once daily for 3 days,82%
same,Total WBC,[9]; [13],10.24 10^3 cells/μl
same,Total WBC % Increase Over Control,[9]; [13],94%
same,Neutrophils,neutrophils [2]; [12],2.2 10^3 cells/μl
same,Neutrophils % Change from Control,neutrophils [2]; [12],7%
same,Lymphocytes,lymphocytes [10]; 60 mg/kg once daily for 3 days,7.40 10^3 cells/μl
same,Lymphocytes % Increase Over Control,lymphocytes [10]; 60 mg/kg once daily for 3 days,82%
same,Lymphocytes,lymphocytes [10]; [13],9.18 10^3 cells/μl
same,Lymphocytes % Increase Over Control,lymphocytes [10]; [13],101%
same,Lymphocytes,lymphocytes [3]; [12],14.7 10^3 cells/μl
same,Lymphocytes % Change from Control,lymphocytes [3]; [12],9%
